*1 amine or outer side, *2 acyl side, *3 side chain or, on linkers, in order; H or OH if unused. Where a SMILES comes first, the peptide text is derived from it. Side-chain parts run from the residue outwards. [ ]: non-standard residue; d: D form. The star is where a group is joined. C18 diacid = O=C(O)CCCCCCCCCCCCCCCCC(=O)*; γGlu = O=C(O)[C@H](CCC(=O)[*:2])N[*:1]; Nle = CCCC[C@H](N)C(=O)O; Aib = CC(C)(N)C(=O)O
These molecules were tested against T1, human GIP receptor (Homo sapiens, UniProt P48546) (assay: In vitro potency (CRE luciferase; whole cells), BHK CRE luc2P hGIPR). Conditions: 0.2% HSA.
T1 construct: expressed in transfected cells; host or cells: BHK (parent line BHKTS13), BHK CRE luc2P hGIPR clone #5
T1 sequence (P48546 22-466): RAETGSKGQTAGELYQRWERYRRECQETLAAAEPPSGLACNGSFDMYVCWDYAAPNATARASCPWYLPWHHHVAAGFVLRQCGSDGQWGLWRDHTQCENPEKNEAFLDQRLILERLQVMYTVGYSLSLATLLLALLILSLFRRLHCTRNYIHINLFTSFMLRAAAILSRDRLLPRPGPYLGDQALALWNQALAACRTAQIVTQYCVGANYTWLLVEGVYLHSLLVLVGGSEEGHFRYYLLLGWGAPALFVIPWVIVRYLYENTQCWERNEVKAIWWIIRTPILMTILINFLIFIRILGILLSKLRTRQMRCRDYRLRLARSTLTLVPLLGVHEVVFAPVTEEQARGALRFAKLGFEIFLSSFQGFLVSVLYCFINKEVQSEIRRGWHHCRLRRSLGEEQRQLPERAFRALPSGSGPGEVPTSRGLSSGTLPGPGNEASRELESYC
Format: cell-based
Procedure: In Vitro Potency (CRE Luciferase; Whole Cells)
The in vitro potency is the measure of human GIP, GLP-1 or glucagon receptor activation, respectively, in a whole cell assay.
In vitro potency was determined by measuring the response of the human GIP, GLP-1 or glucagon receptor in a reporter gene assay in individual cell lines. […] When the respective receptor is activated it results in the production of cAMP, which in turn results in the luciferase protein being expressed. When assay incubation is completed the luciferase substrate (luciferin) is added and the enzyme converts luciferin to oxyluciferin to produce bioluminescence. The luminescence is measured as the readout for the assay.
The cells were derived from a clone containing the CRE luciferase element and were established by further transfection with the respective receptor to obtain the current clone.
The cells were cultured at 5% CO2 in Cell Culture Medium. They were aliquoted and stored in liquid nitrogen. The cells were kept in passage and were seeded out the day before each assay.
The Assay Buffer consisted of 1% ovalbumin and 0.1% Pluronic F-68 in Assay Medium with the addition of human serum albumin at twice the indicated concentrations.
1) Cells were plated at 5000 cells/well and incubated overnight.
2) Cells were washed three times in PBS.
3) Assay Medium (50 μl aliquot) with or without serum albumin was added to each well in the assay plate.
4) Stocks of the test compounds and reference compounds were diluted to a concentration of 0.2 μM in Assay Buffer. […] 8) The cells were washed three times with PBS plus some liquid in each well. 9) A 100 μl aliquot of steadylite plus reagent was added to each well of the assay plate (reagent was light sensitive). 10) Each assay plate was covered with aluminum foil to protect it from light and shaken for 30 min at room temperature. 11) Each assay plate was read in a microtiter plate reader. Calculations and Results
The data from the microtiter plate reader was transferred to GraphPad Prism software. The software performs a non-linear regression (log(agonist) vs response).
A minimum of two replicates was measured for each sample. The reported values are averages of the replicates.

Row | EC50 [nM] | Compound
1 | 0.0499 | CCCC[C@H](NC(=O)[C@H](C)NC(=O)[C@@H](NC(=O)[C@H](CO)NC(=O)[C@H](Cc1ccc(O)cc1)NC(=O)[C@H](CC(=O)O)NC(=O)[C@H](CO)NC(=O)[C@@H](NC(=O)[C@H](Cc1ccccc1)NC(=O)[C@@H](NC(=O)CNC(=O)[C@H](CCC(=O)O)NC(=O)C(C)(C)NC(=O)[C@@H](N)Cc1ccc(O)cc1)[C@@H](C)O)[C@@H](C)CC)[C@@H](C)CC)C(=O)N[C@@H](CC(=O)O)C(=O)N[C@@H](CCCCN)C(=O)N[C@H](C(=O)N[C@@H](Cc1c[nH]cn1)C(=O)N[C@@H](CCC(N)=O)C(=O)N[C@@H](CCC(N)=O)C(=O)N[C@@H](CC(=O)O)C(=O)N[C@@H](Cc1ccccc1)C(=O)N[C@H](C(=O)N[C@@H](CCCCNC(=O)CC[C@H](NC(=O)CC[C@H](NC(=O)CC[C@H](NC(=O)CCCCCCCCCCCCCCCCC(=O)O)C(=O)O)C(=O)O)C(=O)O)C(=O)N[C@@H](Cc1c[nH]c2ccccc12)C(=O)N[C@@H](CC(C)C)C(=O)N[C@@H](CC(C)C)C(=O)N[C@@H](C)C(=O)N[C@@H](CCC(N)=O)C(=O)N[C@@H](CCCCN)C(=O)NCC(=O)O)C(C)C)[C@@H](C)CC [Compound 2, N{Epsilon-24}-[(4S)-4-carboxy-4-[[(4S)-4-carboxy-4-[[(4S)-4-carboxy-4-(17-carboxyheptadecanoylamino)butanoyl]amino]butanoyl]amino]butanoyl]-[Aib2,Nle14,Lys24]-hGIP(1-31)] (H-Y[Aib]EGTFISDYSIA[Nle]DKIHQQDFVK([γGlu-γGlu-γGlu-C18 diacid])WLLAQKG-OH)
2 | 0.0629 | CCCC[C@H](NC(=O)[C@H](C)NC(=O)[C@@H](NC(=O)[C@H](CO)NC(=O)[C@H](Cc1ccc(O)cc1)NC(=O)[C@H](CC(=O)O)NC(=O)[C@H](CO)NC(=O)[C@@H](NC(=O)[C@H](Cc1ccccc1)NC(=O)[C@@H](NC(=O)CNC(=O)[C@H](CCC(=O)O)NC(=O)C(C)(C)NC(=O)[C@@H](N)Cc1ccc(O)cc1)[C@@H](C)O)[C@@H](C)CC)[C@@H](C)CC)C(=O)N[C@@H](CC(=O)O)C(=O)N[C@@H](CCCCN)C(=O)N[C@H](C(=O)N[C@@H](CCCNC(=N)N)C(=O)N[C@@H](CCC(N)=O)C(=O)N[C@@H](CCC(=O)O)C(=O)N[C@@H](CC(=O)O)C(=O)N[C@@H](Cc1ccccc1)C(=O)N[C@H](C(=O)N[C@@H](CCCCNC(=O)CC[C@H](NC(=O)CC[C@H](NC(=O)CC[C@H](NC(=O)CCCCCCCCCCCCCCCCC(=O)O)C(=O)O)C(=O)O)C(=O)O)C(=O)N[C@@H](Cc1c[nH]c2ccccc12)C(=O)N[C@@H](CC(C)C)C(=O)N[C@@H](CC(C)C)C(=O)N[C@@H](C)C(=O)N[C@@H](CCC(N)=O)C(=O)N[C@@H](CCCCN)C(=O)NCC(=O)O)C(C)C)[C@@H](C)CC [Compound 9, N{Epsilon-24}-[(4S)-4-carboxy-4-[[(4S)-4-carboxy-4-[[(4S)-4-carboxy-4-(17-carboxyheptadecanoylamino)butanoyl]amino]butanoyl]amino]butanoyl]-[Aib2,Nle14,Arg18,Glu20,Lys24]-hGIP(1-31)] (H-Y[Aib]EGTFISDYSIA[Nle]DKIRQEDFVK([γGlu-γGlu-γGlu-C18 diacid])WLLAQKG-OH; N-terminus and C-terminus assumed)
3 | 0.0725 | CCCC[C@H](NC(=O)[C@H](C)NC(=O)[C@@H](NC(=O)[C@H](CO)NC(=O)[C@H](Cc1ccc(O)cc1)NC(=O)[C@H](CC(=O)O)NC(=O)[C@H](CO)NC(=O)[C@@H](NC(=O)[C@H](Cc1ccccc1)NC(=O)[C@@H](NC(=O)CNC(=O)[C@H](CCC(=O)O)NC(=O)C(C)(C)NC(=O)[C@@H](N)Cc1ccc(O)cc1)[C@@H](C)O)[C@@H](C)CC)[C@@H](C)CC)C(=O)N[C@@H](CC(=O)O)C(=O)N[C@@H](C)C(=O)N[C@H](C(=O)N[C@@H](CCCNC(=N)N)C(=O)N[C@@H](CCC(N)=O)C(=O)N[C@@H](CCC(N)=O)C(=O)N[C@@H](CC(=O)O)C(=O)N[C@@H](Cc1ccccc1)C(=O)N[C@H](C(=O)N[C@@H](CCCCNC(=O)CC[C@H](NC(=O)CC[C@H](NC(=O)CC[C@H](NC(=O)CCCCCCCCCCCCCCCCC(=O)O)C(=O)O)C(=O)O)C(=O)O)C(=O)N[C@@H](Cc1c[nH]c2ccccc12)C(=O)N[C@@H](CC(C)C)C(=O)N[C@@H](CC(C)C)C(=O)N[C@@H](C)C(=O)N[C@@H](CCC(N)=O)C(=O)N[C@@H](CCCCN)C(=O)NCC(=O)O)C(C)C)[C@@H](C)CC [Compound 13, N{Epsilon-24}-[(4S)-4-carboxy-4-[[(4S)-4-carboxy-4-[[(4S)-4-carboxy-4-(17-carboxyheptadecanoylamino)butanoyl]amino]butanoyl]amino]butanoyl]-[Aib2,Nle14,Ala16,Arg18,Lys24]-hGIP(1-31)] (H-Y[Aib]EGTFISDYSIA[Nle]DAIRQQDFVK([γGlu-γGlu-γGlu-C18 diacid])WLLAQKG-OH; N-terminus and C-terminus assumed)
4 | 0.025 | CCCC[C@H](NC(=O)[C@H](C)NC(=O)[C@@H](NC(=O)[C@H](CO)NC(=O)[C@H](Cc1ccc(O)cc1)NC(=O)[C@H](CC(=O)O)NC(=O)[C@H](CO)NC(=O)[C@@H](NC(=O)[C@H](Cc1ccccc1)NC(=O)[C@@H](NC(=O)CNC(=O)[C@H](CCC(=O)O)NC(=O)[C@H](C)NC(=O)[C@@H](Cc1ccc(O)cc1)NC(C)=O)[C@@H](C)O)[C@@H](C)CC)[C@@H](C)CC)C(=O)N[C@@H](CC(=O)O)C(=O)N[C@@H](CCCCN)C(=O)N[C@H](C(=O)N[C@@H](CCCNC(=N)N)C(=O)N[C@@H](CCC(N)=O)C(=O)N[C@@H](CCC(=O)O)C(=O)N[C@@H](CC(=O)O)C(=O)N[C@@H](Cc1ccccc1)C(=O)N[C@H](C(=O)N[C@@H](CCCCNC(=O)COCCOCCNC(=O)COCCOCCNC(=O)CC[C@H](NC(=O)CCCCCCCCCCCCCCCCC(=O)O)C(=O)O)C(=O)N[C@@H](Cc1c[nH]c2ccccc12)C(=O)N[C@@H](CC(C)C)C(=O)N[C@@H](CC(C)C)C(=O)N[C@@H](C)C(=O)N[C@@H](CCC(N)=O)C(=O)N[C@@H](CCCCN)C(=O)NCC(=O)O)C(C)C)[C@@H](C)CC [Compound 16, N{1}-acetyl,N{Epsilon-24}-[2-[2-[2-[[2-[2-[2-[[(4S)-4-carboxy-4-(17-carboxy-heptadecanoylamino)butanoyl]amino]ethoxy]ethoxy]acetyl]amino]ethoxy]ethoxy]acetyl]-[D-Tyr1,Nle14,Arg18,Glu20,Lys24]-hGIP(1-31)]
5 | 0.546 | CCCC[C@H](NC(=O)[C@H](C)NC(=O)[C@@H](NC(=O)[C@H](CO)NC(=O)[C@H](Cc1ccc(O)cc1)NC(=O)[C@H](CC(=O)O)NC(=O)[C@H](CO)NC(=O)[C@@H](NC(=O)[C@H](Cc1ccccc1)NC(=O)[C@@H](NC(=O)CNC(=O)[C@H](CCC(=O)O)NC(=O)[C@H](C)NC(=O)[C@H](Cc1ccc(O)cc1)NC(C)=O)[C@@H](C)O)[C@@H](C)CC)[C@@H](C)CC)C(=O)N[C@@H](CC(=O)O)C(=O)N[C@@H](CCCCN)C(=O)N[C@H](C(=O)N[C@@H](CCCNC(=N)N)C(=O)N[C@@H](CCC(N)=O)C(=O)N[C@@H](CCC(N)=O)C(=O)N[C@@H](CC(=O)O)C(=O)N[C@@H](Cc1ccccc1)C(=O)N[C@H](C(=O)N[C@@H](CCCCNC(=O)CC[C@H](NC(=O)CC[C@H](NC(=O)CC[C@H](NC(=O)CCCCCCCCCCCCCCCCC(=O)O)C(=O)O)C(=O)O)C(=O)O)C(=O)N[C@@H](Cc1c[nH]c2ccccc12)C(=O)N[C@@H](CC(C)C)C(=O)N[C@@H](CC(C)C)C(=O)N[C@@H](C)C(=O)N[C@@H](CCC(N)=O)C(=O)N[C@@H](CCCCN)C(=O)NCC(=O)O)C(C)C)[C@@H](C)CC [Compound 18, N{1}-acetyl,N{Epsilon-24}-[(4S)-4-carboxy-4-[[(4S)-4-carboxy-4-[[(4S)-4-carboxy-4-(17-carboxyheptadecanoylamino)butanoyl]amino]butanoyl]amino]butanoyl]-[Nle14,Arg18,Lys24]-hGIP(1-31)]

From patent US10604555B2, “GIP derivatives and uses thereof” (priority 2018, dated 2020)
